This passage reports melting point results from US7423159B2, “Agent for preventing or treating neuropathy” (Takeda Pharmaceutical Company Limited, priority 2002, dated 2008).

In the case of `Cn1ncc(/C=C/C(=O)Nc2ccc(Cc3nnco3)cc2)c1-c1ccc(F)cc1` [Example 129, (2E)-3-[5-(4-Fluorophenyl)-1-methyl-1H-pyrazol-4-yl]-N-[4-(1,3,4-oxadiazol-2-ylmethyl)phenyl]acrylamide], the melting point is 223 to 224 °C.

Turning to `Cn1ncc(/C=C/C(=O)Nc2ccc(CC(C)(C)O)cc2)c1-c1ccc(F)cc1` [Example 114, (2E)-3-[5-(4-Fluorophenyl)-1-methyl-1H-pyrazol-4-yl]-N-[4-(2-hydroxy-2-methylpropyl)phenyl]acrylamide], the melting point was in the range of 188 to 189 °C. As for `COc1ccc(-c2c(/C=C\C(=O)Nc3ccc(CP(=O)(OC)OC)cc3)cnn2C)cc1`, the figure is 172 to 173 °C; as for `COP(=O)(Cc1ccc(NC(=O)/C=C/c2cnn(C)c2-c2ccccc2F)cc1)OC`, 220 to 221 °C.

Take `CCOP(=O)(Cc1ccc(NC(=O)/C=C/c2cnn(C)c2-c2cccc(Cl)c2)cc1)OCC`: the melting point lay in the range of 214 to 216 °C. As to `CCc1nnc(CCc2ccc(NC(=O)/C=C/c3cnn(C)c3-c3ccc(F)cc3)cc2)o1` [Example 88, (2E)-N-{4-[2-(5-Ethyl-1,3,4-oxadiazol-2-yl)ethyl]phenyl}-3-[5-(4-fluorophenyl)-1-methyl-1H-pyrazol-4-yl]acrylamide], the melting point lay within 167 to 168 °C. The same measure for `CCOP(=O)(OCC)C(O)c1ccc(NC(=O)/C=C/c2cnn(C)c2-c2ccc(F)cc2)cc1` (stereo not shown): 194 to 195 °C; for `CC(C)CC(=O)NCc1ccc(NC(=O)/C=C/c2cnn(C)c2-c2ccc(F)cc2)cc1` [Example 141, (2E)-3-[5-(4-Fluorophenyl)-1-methyl-1H-pyrazol-4-yl]-N-(4-{[(3-methylbutanoyl)amino]methyl}phenyl)acrylamide]: 226 to 227 °C. Molecule `CCC(=O)NCc1ccc(NC(=O)/C=C/c2cnn(C)c2-c2ccc(F)cc2)cc1` [Example 138, (2E)-3-[5-(4-fluorophenyl)-1-methyl-1H-pyrazol-4-yl]-N-{4-[(propionylamino)methyl]phenyl}acrylamide] returned a melting point of 271 to 272 °C.

The molecule `Cn1ncc(/C=C/C(=O)Nc2ccc(CC(C)(C)C)cc2)c1-c1ccc(F)cc1` [Example 105, (2E)-3-[5-(4-Fluorophenyl)-1-methyl-1H-pyrazol-4-yl]-N-(4-neopentylphenyl)acrylamide] returned a melting point of 150 to 151 °C. Take `Cn1ncc(/C=C/C(=O)Nc2ccc(OCc3nnco3)cc2)c1-c1ccc(F)cc1` [Example 94, (2E)-3-[5-(4-Fluorophenyl)-1-methyl-1H-pyrazol-4-yl]-N-[4-(1,3,4-oxadiazol-2-ylmethoxy)phenyl]acrylamide]: the melting point lay in the range of 154 to 155 °C. The molecule `CCC(O)(CC)Cc1ccc(NC(=O)/C=C/c2cnn(C)c2-c2ccc(F)cc2)cc1` [Example 115, (2E)-N-[4-(2-Ethyl-2-hydroxybutyl)phenyl]-3-[5-(4-fluorophenyl)-1-methyl-1H-pyrazol-4-yl]acrylamide] displayed a melting point of 150 to 151 °C. As for `Cn1ncc(/C=C/C(=O)Nc2ccc(Cn3ccnc3CO)cc2)c1-c1ccc(F)cc1` [Example 200, (2E)-3-[5-(4-Fluorophenyl)-1-methyl-1H-pyrazol-4-yl]-N-(4-{[2-(hydroxymethyl)-1H-imidazol-1-yl]methyl}phenyl)acrylamide], the figure is 229 to 230 °C; as for `CCOP(=O)(Cc1ccc(NC(=O)/C=C/c2cnn(C)c2-c2ccc(F)cc2)c(C)c1)OCC`, 154 to 155 °C; as for `CCOP(=O)(Cc1ccc(NC(=O)/C=C/c2cnn(C)c2-c2ccc(Br)cc2)cc1)OCC`, 229 to 231 °C. In turn, `Cc1nnc(COc2ccc(NC(=O)/C=C/c3cnn(C)c3-c3ccc(F)cc3)cc2)o1` [Example 97, (2E)-3-[5-(4-Fluorophenyl)-1-methyl-1H-pyrazol-4-yl]-N-{4-[(5-methyl-1,3,4-oxadiazol-2-yl)methoxy]phenyl}acrylamide] displayed a melting point of 117 to 118 °C.
